The values below come from patent US6384030B1, “Water soluble azoles as broad-spectrum antifungals” (priority 1998, dated 2002).

SMILES strings stand for the structures. In brackets after ≈: the same amount, converted by molar mass.

The conditions of data set [1]: Saksena et al., Bioorganic & Medicinal Chemistry Letters (1995), 5(2), 127-132; cited from earlier work.
For data set [2], the system named is Candida spp. Nature of the data set: Fungal susceptibility, Panel 1 (example C1). It counts as cell-based. As to conditions: Panel 1: 8 isolates of Candida spp. incl. an azole-resistant C. albicans strain; CYG broth; 37° C. for 48 hours; growth below 35% of control; read-out: geometric mean minimum inhibitory concentration-value (MIC).
Data set [3] concerns other fungi (3 dermatophyte isolates, Aspergillus migatus, Cryptococcus neoformans, Sporothrix schenckii). The data set can be described thus: Fungal susceptibility, Panel 2 (example C1). It counts as cell-based. The following applies: Panel 2: 6 other fungi (3 dermatophytes, Aspergillus, Cryptococcus neoformans, Sporothrix schenckii); CYG broth; growth below 35% of control.
Data set [4] concerns Candida spp. Nature of the data set: Minimum fungicidal concentration (example C2). As to conditions: 24 Candida isolates; RPMI 1640 buffered with MOPS, 2% glucose; subculture on Sabouraud glucose agar; read-out: Geometric mean minimum fungicidal concentrations. It counts as cell-based. As for the experimental part: (§1) A panel of 24 Candida isolates, 8 isolates of Aspergillus spp., 8 dermatophytes, 10 Zygomycetes, 10 Fusarium spp., 2 Cryptococcus neoformans and 8 dematiaceous hyphomycetes was used.
(§2) Inocula were prepared as in example C1 but the culture medium used in this test was RPMI 1640 buffered with MOPS, with 2% glucose (Odds, F. C., Antimicrobial Agents and Chemotherapy, 1995, 39, 2051-2060). Test compounds were added to the medium from DMSO solutions to give final concentrations in the series 10, 3.2, 1.0, 0.32, 0.10, 0.032, 0.010,0.0032 and 0.0010 μM. Incubation times and temperatures were as in example C1. Once the microdilution plates had been read for growth turbidity spectrophotometrically, samples of material were removed from the test cultures to inoculate 10 μl volumes on plates of Sabouraud glucose agar. The plates were incubated at 37° C. for 48 hours for yeasts or at other times and temperatures for other species. Geometric mean minimum fungicidal concentrations in μM which were determined as the lowest concentrations of the test compound that completely or substantially eliminated reappearance of fungal growth on the Sabouraud plates

For data set [5], the system named is Fusarium spp. The data set can be described thus: Minimum fungicidal concentration (example C2). It counts as cell-based. As to conditions: 10 Fusarium spp.; RPMI 1640 buffered with MOPS, 2% glucose; subculture on Sabouraud glucose agar; read-out: Geometric mean minimum fungicidal concentrations. As for the experimental part:
as §1, §2

Data set [6] relates to Zygomycetes. The data set can be described thus: Minimum fungicidal concentration (example C2). In kind it is cell-based. The following applies: 10 Zygomycetes; RPMI 1640 buffered with MOPS, 2% glucose; subculture on Sabouraud glucose agar; read-out: Geometric mean minimum fungicidal concentrations. As for the experimental part: as §1, §2
Data set [7] can be described thus: Water solubility (example D1). In kind it is physicochemical. The following applies: aqueous buffer, thermodynamic from solid; water buffered with 0.1 M citric acid and 0.2 M Na2HPO4 (pH =4); shaken 1 day at room temperature; UV.

For `CN(C)CCn1ncn(-c2ccc(N3CCN(c4ccc(OC[C@@H]5CO[C@@](Cn6cncn6)(c6ccc(F)cc6F)C5)cc4)CC3)cc2)c1=O` (relative stereo) [(3R-cis)-4-[4-[4-[4-[[5-(2,4-difluorophenyl)tetrahydro-5-(1H-1,2,4-triazol-1-ylmethyl)-3-furanyl]methoxy]phenyl]-1-piperazinyl]phenyl]-2-[2-(dimethylamino)ethyl]-2,4-dihydro-3H-1,2,4-triazol-3-one], in data set [1], the “activity as antifungal compared to SCH 51048” value is listed as “profoundly less active”.

For orientation: solubility means the concentration that dissolves in the medium under given conditions. Take `C[C@@H](N[C@H](C)[C@H](C)n1ncn(-c2ccc(N3CCN(c4ccc(OC[C@@H]5CO[C@@](Cn6cncn6)(c6ccc(F)cc6F)O5)cc4)CC3)cc2)c1=O)c1ccccc1` (relative stereo) [Compound 86, [2S-[2α,4α[(R*,S*)(S*)]]]-4-[4-[4-[4-[[2-(2,4-difluoropheny)-2-(1H-1,2,4-triazol-1-yl-methyl)-1,3-dioxolan-4-yl]methoxy]phenyl]-1-piperazinyl]phenyl]-2,4-dihydro-2-[2-[(1-phenylethyl)amino]-1-methylpropyl]-3H-1,2,4-triazol-3-one]: the MIC in data set [2] and in data set [3] was 0.01 to 1 µM (≈ 0.00792 to 0.792 µg/mL) in each case. The MFC in data set [4], in data set [5] and in data set [6] was 1 to 10 µM (≈ 0.792 to 7.92 µg/mL) throughout. Moreover, the solubility at 1 day in data set [7] is more than 100 µg/mL.
